# Source: US8071593B2, “2-oxo-3-benzylbenzoxazol-2-one derivatives and related compounds as Met kinase inhibitors for the treatment of tumours” (Merck Patent Gesellschaft mit beschrankter Haftung, priority 2007, dated 2011)
# Counter-ions that a name gives are not always drawn.
# Biological target: Met kinase (Homo sapiens, UniProt P08581)
# Test: Met kinase inhibition (cell assay)
# Type: cell-based
# Met kinase, sequence (P08581 25-1390): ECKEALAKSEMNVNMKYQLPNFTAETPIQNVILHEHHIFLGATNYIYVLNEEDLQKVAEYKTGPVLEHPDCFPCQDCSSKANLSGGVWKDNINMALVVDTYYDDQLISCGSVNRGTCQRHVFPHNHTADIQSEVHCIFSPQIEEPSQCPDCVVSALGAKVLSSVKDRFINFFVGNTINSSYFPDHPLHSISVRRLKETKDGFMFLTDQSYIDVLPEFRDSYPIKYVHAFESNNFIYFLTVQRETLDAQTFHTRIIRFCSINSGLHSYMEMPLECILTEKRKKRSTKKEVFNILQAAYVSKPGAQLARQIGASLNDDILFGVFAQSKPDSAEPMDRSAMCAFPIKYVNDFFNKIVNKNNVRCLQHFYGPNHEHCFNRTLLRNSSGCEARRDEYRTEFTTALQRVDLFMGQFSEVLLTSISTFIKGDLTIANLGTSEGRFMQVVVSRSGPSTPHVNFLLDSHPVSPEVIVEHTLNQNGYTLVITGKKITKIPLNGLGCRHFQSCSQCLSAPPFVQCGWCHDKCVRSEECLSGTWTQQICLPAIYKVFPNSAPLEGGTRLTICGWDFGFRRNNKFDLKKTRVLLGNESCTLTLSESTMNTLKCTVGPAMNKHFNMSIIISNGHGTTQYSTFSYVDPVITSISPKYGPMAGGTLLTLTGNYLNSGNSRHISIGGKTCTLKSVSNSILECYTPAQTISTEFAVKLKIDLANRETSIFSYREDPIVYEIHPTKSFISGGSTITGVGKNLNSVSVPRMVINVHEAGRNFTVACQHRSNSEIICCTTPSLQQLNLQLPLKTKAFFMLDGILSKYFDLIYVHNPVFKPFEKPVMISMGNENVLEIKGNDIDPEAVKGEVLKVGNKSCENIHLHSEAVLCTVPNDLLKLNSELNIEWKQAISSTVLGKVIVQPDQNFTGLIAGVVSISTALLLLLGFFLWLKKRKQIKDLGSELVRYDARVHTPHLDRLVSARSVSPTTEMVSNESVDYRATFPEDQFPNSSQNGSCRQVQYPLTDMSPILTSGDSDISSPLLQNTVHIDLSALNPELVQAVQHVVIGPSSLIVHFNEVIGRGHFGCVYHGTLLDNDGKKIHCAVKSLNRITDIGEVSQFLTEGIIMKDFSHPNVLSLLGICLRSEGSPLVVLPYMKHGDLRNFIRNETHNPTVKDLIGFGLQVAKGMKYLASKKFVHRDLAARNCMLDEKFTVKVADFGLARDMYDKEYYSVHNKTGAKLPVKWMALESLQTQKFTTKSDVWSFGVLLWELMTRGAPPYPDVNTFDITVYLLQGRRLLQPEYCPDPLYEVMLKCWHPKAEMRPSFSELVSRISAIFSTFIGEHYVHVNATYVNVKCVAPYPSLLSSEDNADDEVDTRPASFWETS
row,Structure (SMILES),IC50 [nM]
1,O=c1oc2c3ncccc3ccc2n1Cc1cccc(-c2ncc(OCCN3CCOCC3)cn2)c1 [Compound A103],1000 to 10000
2,CN(C)CCCOc1cnc(-c2cccc(Cn3c(=O)oc4cc(F)c(F)cc43)c2)nc1 [Compound A93],1000 to 10000
3,"CCOC(=O)Nc1cccc(C(C)n2c(=O)oc3ccc(C(=O)NCCN(C)C)cc32)c1 (stereo not drawn) [Compound A33, Ethyl (3-{1-[5-(2-dimethylaminoethylcarbamoy1)-2-oxobenzoxazol-3-yl]ethyl}phenyl)carbamate]",10 to 1000
4,"CCOC(=O)Nc1cccc(C(C)n2c(=O)oc3ccc(C(=O)NCCCN(C)C)cc32)c1 (stereo not drawn) [Compound A36, Ethyl (3-{1-[5-(3-dimethylaminopropylcarbamoy1)-2-oxobenzoxazol-3-yl]ethyl}phenyl)carbamate]",10 to 1000
5,"CN(C)CCCCNC(=O)c1ccc2oc(=O)n(Cc3ccc4[nH]c(=O)[nH]c4c3)c2c1 [Compound A34, N-(4-Dimethylaminobutyl)-2-oxo-3-(2-oxo-2,3-dihydro-1H-benzimidazol-5-ylmethyl)-2,3-dihydrobenzoxazole-5-carboxamide]",10 to 1000
6,Cc1ccc2oc(=O)n(Cc3cccc(-c4ncc(OCCN5CCOCC5)cn4)c3)c2n1 [Compound A79],10 to 1000
7,CN1CCN(CCCOC(=O)Nc2cccc(Cn3c(=O)oc4ccc(Cl)cc43)c2)CC1 [Compound A2],10 to 1000
8,"CCCNC(=O)c1ccc2oc(=O)n(Cc3cccc(NC(=O)OCCCN4CCNCC4)c3)c2c1 [Compound A10, 3-Piperazin-1-ylpropyl [3-(5-propylcarbamoyl-2-oxobenzoxazol-3-ylmethyl)phenyl]carbamate]",10 to 1000
9,"CN(C)C(=O)c1ccc2oc(=O)n(Cc3cccc(NC(=O)OCCCN4CCNCC4)c3)c2c1 [Compound A4, 3-Piperazin-1-ylpropyl [3-(5-dimethylcarbamoyl-2-oxobenzoxazol-3-ylmethyl)phenyl]carbamate]",10 to 1000
10,"CCCNC(=O)c1ccc2oc(=O)n(Cc3cccc(NC(=O)OCCCN4CCN(C)CC4)c3)c2c1 [Compound A5, 3-(4-Methylpiperazin-1-yl)propyl [3-(5-propylcarbamoyl-2-oxobenzoxazol-3-ylmethyl)phenyl]carbamate]",10 to 1000
11,"CN(C)CCNC(=O)c1ccc2oc(=O)n(Cc3ccc4[nH]c(=O)[nH]c4c3)c2c1 [Compound A35, N-(2-dimethylaminoethyl)-2-oxo-3-(2-oxo-2,3-dihydro-1H-benzoimidazol-5-ylmethyl)-2,3-dihydrobenzoxazole-5-carboxamide]",10 to 1000
12,"CN1CCN(CCOC(=O)Nc2cccc(Cn3c(=O)oc4ccccc43)c2)CC1 [Compound A17, 2-(4-Methylpiperazin-1-yl)ethyl [3-(2-oxobenzoxazol-3-ylmethyl)phenyl]carbamate]",10 to 1000
13,"CN1CCN(CCCOC(=O)Nc2cccc(Cn3c(=O)oc4cc(Cl)ccc43)c2)CC1 [Compound A6, 3-(4-Methylpiperazin-1-yl)propyl [3-(6-chloro-2-oxobenzoxazol-3-ylmethyl)phenyl]carbamate]",10 to 1000
14,CN(C)CCCOc1cnc(-c2cccc(Cn3c(=O)oc4cc(S(=O)(=O)CCO)ccc43)c2)nc1 [Compound A92],1000 to 10000
15,CN(C)CCCOc1cnc(-c2cccc(Cn3c(=O)oc4ncccc43)c2)nc1 [Compound A95],1000 to 10000
16,"CCOC(=O)Nc1cccc(Cn2c(=O)oc3cc(C(=O)OC)ccc32)c1 [Compound A37, Methyl 3-(3-ethoxycarbonylaminobenzyl)-2-oxo-2,3-dihydrobenzoxazole-6-carboxylate]",10 to 1000
17,"CC(=O)c1ccc2c(c1)oc(=O)n2Cc1cccc(NC(=O)OCCCN2CCN(C)CC2)c1 [Compound A22, 3-(4-Methylpiperazin-1-yl)propyl [3-(6-acetyl-2-oxobenzoxazol-3-ylmethyl)phenyl]carbamate]",10 to 1000

# Now from value to compound:
row,IC50 [nM],Structure (SMILES)
1,10 to 1000,CC(=O)c1ccc2oc(=O)n(Cc3cccc(-c4ncc(OCCCN(C)C)cn4)c3)c2c1 [Compound A67]
2,10 to 1000,"CN(C)CCCOC(=O)Nc1cccc(Cn2c(=O)oc3ccc(C(=O)N(C)C)cc32)c1 [Compound A12, 3-Dimethylaminopropyl [3-(5-dimethylcarbamoyl-2-oxobenzoxazol-3-ylmethyl)phenyl]carbamate]"
3,10 to 1000,"CN1CCN(CCCOC(=O)Nc2cccc(Cn3c(=O)oc4ccc(C(=O)N(C)C)cc43)c2)CC1 [Compound A3, 3-(4-Methylpiperazin-1-yl)propyl [3-(5-dimethylcarbamoyl-2-oxobenzoxazol-3-ylmethyl)phenyl]carbamate]"
4,10 to 1000,"CC(=O)c1ccc2oc(=O)n(Cc3cccc(NC(=O)OCCCN4CCN(C)CC4)c3)c2c1 [Compound A8, 3-(4-Methylpiperazin-1-yl)propyl [3-(5-acetyl-2-oxobenzoxazol-3-ylmethyl)phenyl]carbamate]"
5,10 to 1000,"CCCNC(=O)c1ccc2oc(=O)n(Cc3cccc(NC(=O)OCCCN(C)C)c3)c2c1 [Compound A13, 3-Dimethylaminopropyl [3-(5-propylcarbamoyl-2-oxobenzoxazol-3-ylmethyl)phenyl]carbamate]"
6,10 to 1000,"COC(=O)c1ccc2c(c1)oc(=O)n2Cc1cccc(NC(=O)OCCCN(C)C)c1 [Compound A14, 3-Dimethylaminopropyl [3-(6-methoxycarbonyl-2-oxobenzoxazol-3-ylmethyl)phenyl]carbamate]"
7,10 to 1000,CN(C)CCCOc1cnc(-c2cccc(Cn3c(=O)oc4cc([N+](=O)[O-])ccc43)c2)nc1 [Compound A76]
8,10 to 1000,"Cc1ccc2c(c1)oc(=O)n2Cc1cccc(NC(=O)OCCCN2CCN(C)CC2)c1 [Compound A21, 3-(4-Methylpiperazin-1-yl)propyl [3-(6-methyl-2-oxobenzoxazol-3-ylmethyl)phenyl]carbamate]"
9,10 to 1000,"COc1ccc2c(c1)oc(=O)n2Cc1cccc(NC(=O)OCCCN2CCN(C)CC2)c1 [Compound A20, 3-(4-Methylpiperazin-1-yl)propyl [3-(6-methoxy-2-oxobenzoxazol-3-ylmethyl)phenyl]carbamate]"
10,10 to 1000,"CN(C)CCCOC(=O)Nc1cccc(Cn2c(=O)oc3ccccc32)c1 [Compound A16, 3-Dimethylaminopropyl [3-(2-oxobenzoxazol-3-ylmethyl)phenyl]carbamate]"
11,10 to 1000,"COC(=O)c1ccc2oc(=O)n(Cc3cccc(-c4ncc(OCCCN(C)C)cn4)c3)c2c1 [Compound A64, methyl 3-{3-[5-(3-dimethylaminopropoxy)pyrimidin-2-yl]-benzyl}-2-oxo-2,3-dihydrobenzoxazole-5-carboxylate]"
12,10 to 1000,CN(C)CCCOc1cnc(-c2cccc(Cn3c(=O)oc4cc5ccccc5cc43)c2)nc1 [Compound A96]
13,10 to 1000,"CCOC(=O)Nc1cccc(Cn2c(=O)oc3ccc(C(=O)NCCN(C)C)cc32)c1 [Compound A30, Ethyl {3-[5-(2-dimethylaminoethylcarbamoyl)-2-oxobenzoxazol-3-ylmethyl]phenyl}carbamate]"
14,10 to 1000,"CC(O)c1ccc2c(c1)oc(=O)n2Cc1cccc(NC(=O)OCCCN2CCN(C)CC2)c1 (stereo not drawn) [Compound A9, 3-(4-methylpiperazin-1-yl)propyl {3-[6-(1-hydroxyethyl)-2-oxobenzoxazol-3-ylmethyl]phenyl}carbamate]"
15,10 to 1000,"CCOC(=O)Nc1cccc(C(C)n2c(=O)oc3ccc(C(=O)NCCCCN(C)C)cc32)c1 (stereo not drawn) [Compound A32, Ethyl (3-{1-[5-(4-dimethylaminobutylcarbamoy1)-2-oxobenzoxazol-3-yl]ethyl}phenyl)carbamate]"
16,10 to 1000,"CN1CCN(CCCOC(=O)Nc2cccc(Cn3c(=O)oc4ccccc43)c2)CC1 [Compound A18, 3-(4-Methylpiperazin-1-yl)propyl [3-(2-oxobenzoxazol-3-ylmethyl)phenyl]carbamate]"
17,10 to 1000,Cc1ccc2oc(=O)n(Cc3cccc(-c4ncc(OCC5CCNCC5)cn4)c3)c2n1 [Compound A87]
18,10 to 1000,"CN(C)CCCOC(=O)Nc1cccc(Cn2c(=O)oc3cccnc32)c1 [Compound A11, 3-Dimethylaminopropyl [3-(2-oxooxazolo[4,5-b]pyridin-3-ylmethyl)phenyl]carbamate]"
19,10 to 1000,CCS(=O)(=O)c1ccc2oc(=O)n(Cc3cccc(-c4ncc(OCCCN(C)C)cn4)c3)c2c1 [Compound A82]
20,10 to 1000,"CN1CCN(CCCOC(=O)Nc2cccc(Cn3c(=O)oc4cc(F)c(F)cc43)c2)CC1 [Compound A19, 3-(4-Methylpiperazin-1-yl)propyl [3-(5,6-difluoro-2-oxobenzoxazol-3-ylmethyl)phenyl]carbamate]"
21,10 to 1000,CN(C)CCCOc1cnc(-c2cccc(Cn3c(=O)oc4ccc(C#N)cc43)c2)nc1 [Compound A66]
22,10 to 1000,"CCOC(=O)Nc1cccc(Cn2c(=O)oc3ccc(C(=O)NCCCN(C)C)cc32)c1 [Compound A31, Ethyl {3-[5-(3-dimethylaminopropylcarbamoyl)-2-oxobenzoxazol-3-ylmethyl]phenyl}carbamate]"
23,10 to 1000,"COC(=O)c1ccc2oc(=O)n(Cc3cccc(NC(=O)OCCCN(C)C)c3)c2c1 [Compound A15, 3-Dimethylaminopropyl [3-(5-methoxycarbonyl-2-oxobenzoxazol-3-ylmethyl)phenyl]carbamate]"
24,10 to 1000,"Cc1ccc2oc(=O)n(Cc3cccc(NC(=O)OCCCN4CCN(C)CC4)c3)c2c1 [Compound A7, 3-(4-Methylpiperazin-1-yl)propyl [3-(5-methyl-2-oxobenzoxazol-3-ylmethyl)phenyl]carbamate]"
25,10 to 1000,"COc1ccc2oc(=O)n(Cc3cccc(NC(=O)OCCCN4CCN(C)CC4)c3)c2c1 [Compound A1, 3-(4-methylpiperazin-1-yl)propyl [3-(5-methoxy-2-oxobenzooxazol-3-ylmethyl)phenyl]carbamate]"

# Test system: not given
# Test: not given
row,melting point,Structure (SMILES)
1,125 °C,"COC(=O)c1ccc2oc(=O)n(Cc3cccc(-c4ncc(OCCCN(C)C)cn4)c3)c2c1 [Compound A64, methyl 3-{3-[5-(3-dimethylaminopropoxy)pyrimidin-2-yl]-benzyl}-2-oxo-2,3-dihydrobenzoxazole-5-carboxylate]"
2,236 to 238 °C (dec.),"CC(c1cccc(NC(=O)OCCN2CCN(C)CC2)c1)n1c(=O)oc2cc(F)c(F)cc21 (stereo not drawn) (as salt: hydrochloride) [Compound A27, 2-(4-methylpiperazin-1-yl)ethyl {3-[1-(5,6-difluoro-2-oxobenzoxazol-3-yl)ethyl]phenyl}carbamate]"
3,273 °C,"CN(C)CCNC(=O)C(=O)Nc1cccc(Cn2c(=O)oc3cc(Cl)ccc32)c1 (as salt: hydrochloride) [Compound A141, N-[3-(6-chloro-2-oxobenzoxazol-3-ylmethyl)phenyl]-N′-(2-dimethylaminoethyl)oxalamide]"
